Data on five compounds can be found in patent CN102503942A, “一种氟喹诺酮衍生物及其制备和药物应用” (Individual, priority 2011, dated 2012).

In this test the test system is Staphylococcus aureus, ATCC 25923 (金黄色葡萄球菌,ATCC 25923). The test can be described thus: MIC by broth microdilution (微量肉汤稀释法). It counts as cell-based. The following applies: ATCC25923, 16 h, MH broth, pH 7.2~7.4, 35℃, 16~20 h.

≈ marks a conversion by molar mass, not a printed value.

Compound `COc1c(N2CCN3CCCCC3C2)c(F)cc2c(=O)c(C(=O)O)cn(C3CC3)c12` (centres unmarked) [例子1, 7-(八氢-2H-吡啶并[1,2-a]吡嗪基)-1-环丙基-6-氟-1,4-二氢-8-甲氧基-4-氧代-3-喹啉羧酸] showed a minimal inhibitory concentration (MIC) of under 0.3 µg/mL.
The figure for `COc1c(N2CCN3CCCC3C2)c(F)cc2c(=O)c(C(=O)O)cn(C3CC3)c12` (centres unmarked) [例子2, 7-(六氢吡咯并[1,2-a]吡嗪基)-1-环丙基-6-氟-1,4-二氢-8-甲氧基-4-氧代-3-喹啉羧酸] is under 0.1 µg/mL; for `COc1c(N2CCN3CCNCC3C2)c(F)cc2c(=O)c(C(=O)O)cn(C3CC3)c12` (centres unmarked) [例子3, 7-(八氢-2H-吡嗪并[1,2-a]吡嗪基)-1-环丙基-6-氟-1,4-二氢-8-甲氧基-4-氧代-3-喹啉羧酸] it is under 0.3 µg/mL; for `COc1c(N2CCN3CCNC3C2)c(F)cc2c(=O)c(C(=O)O)cn(C3CC3)c12` (centres unmarked) [例子4, 7-(六氢咪唑并[1,2-a]吡嗪基)-1-环丙基-6-氟-1,4-二氢-8-甲氧基-4-氧代-3-喹啉羧酸] it is under 0.1 µg/mL.
Under `CC1COc2c(N3CCN(C)CC3)c(F)cc3c(=O)c(C(=O)O)cn1c23` (centres unmarked) [氧氟沙星, reference compound] stands 0.3 µg/mL (≈ 0.83 µM).
